In brackets after ≈: the same amount, converted by molar mass.
Columns and labels:
Pantothenate kinase 3 = Pantothenate kinase 3 (Homo sapiens, UniProt Q9H999)
Description: Inhibition of human recombinant N-terminal His6-fusion tagged PanK3 expressed in Escherichia coli BL21 (DE3) measured after 10 mins in presence of ATP and D-[14C]-pantothenate by scintillation counting method

[1] = Half life in […] rat microsomes; assay type: ADME, Liver, Microsome
[2] = Half life in mouse liver microsomes; assay type: ADME, Microsome; settings: for half-life: liver microsomes
[3] = Protein binding in rat plasma by LCMS analysis; assay type: ADME, cell-free
[4] = Half life in human plasma; assay type: ADME, cell-free
[5] = Permeability of the compound by PAMPA assay; assay type: ADME; settings: for Papp: read-out: permeability
[6] = Half life in […] human microsomes; assay type: ADME, Liver, Microsome
[7] = Permeability across apical to basolateral side in human Caco2 cells; assay type: ADME, cell-based; settings: Caco-2, read-out: permeability
[8] = Protein binding in human plasma by LCMS analysis; assay type: ADME, cell-free
[9] = Protein binding in mouse plasma by LCMS analysis; assay type: ADME, cell-free
[10] = Solubility of the compound in pH 7.4 by UV spectrometry; assay type: physicochemical; settings: buffer

Pantothenate kinase 3, sequence (Q9H999 whole entry): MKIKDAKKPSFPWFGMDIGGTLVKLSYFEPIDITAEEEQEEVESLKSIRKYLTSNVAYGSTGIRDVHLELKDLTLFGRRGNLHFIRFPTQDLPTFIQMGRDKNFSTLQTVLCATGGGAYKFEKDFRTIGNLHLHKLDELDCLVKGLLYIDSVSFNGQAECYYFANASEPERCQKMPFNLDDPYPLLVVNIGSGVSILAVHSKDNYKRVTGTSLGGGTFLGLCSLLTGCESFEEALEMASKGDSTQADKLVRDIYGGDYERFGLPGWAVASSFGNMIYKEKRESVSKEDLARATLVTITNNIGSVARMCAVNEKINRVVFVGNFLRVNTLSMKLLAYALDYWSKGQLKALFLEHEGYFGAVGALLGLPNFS

CC(C)c1ccc(NC(=O)N2CCN(c3ncccc3C#N)CC2)cc1
IC50 (Pantothenate kinase 3): 1.1 µM

CC(C)c1ccc(NC(=O)N2CCN(c3ccc(Cl)c(Cl)c3)CC2)cc1
IC50 (Pantothenate kinase 3): 1.4 µM

CC(=O)c1ccc(N2CCN(C(=O)Nc3ccc(C(C)C)cc3)CC2)cc1
IC50 (Pantothenate kinase 3): 3.3 µM

CC(C)c1ccc(NC(=O)N2CCN(c3ccc(Cl)cn3)CC2)cc1
IC50 (Pantothenate kinase 3): 0.22 µM

N#Cc1ccc(N2CCN(C(=O)Cc3ccc(C4CC4)cc3)CC2)nc1
IC50 (Pantothenate kinase 3): 0.2 µM

CC(C)c1ccc(NC(=O)N2CCN(c3ccc(C#N)cn3)CC2)cc1
IC50 (Pantothenate kinase 3): 0.64 µM

CC(C)c1ccc(NC(=O)N2CCN(c3ccc(F)cc3)CC2)cc1
IC50 (Pantothenate kinase 3): 1.8 µM

CC(C)(C)c1ccc(NC(=O)N2CCN(c3ccc(C#N)cn3)CC2)cc1
half-life [1]: 31 min
half-life [2]: 16 min
PPB [3]: 98%
half-life [4]: > 48 h
permeability [5]: 1232 10^-6 cm/s
half-life [6]: 8 min

CC(C)c1ccc(NC(=O)N2CCN(c3ccc(Br)cn3)CC2)cc1
IC50 (Pantothenate kinase 3): 0.22 µM

CC(C)c1ccc(CC(=O)N2CCN(c3ccc(C#N)nn3)CC2)cc1
Papp A→B [7]: 302 nm/s
half-life [2]: 8 min
fraction unbound ([3]; read-out: PPB): 0.09
fraction unbound ([8]; read-out: PPB (converted)): 0.07
half-life [4]: > 48 h
Papp [5]: 4130 nm/s
fraction unbound ([9]; read-out: PPB (converted)): 0.08
half-life [6]: 7 min

CC(C)c1ccc(NC(=O)N2CCN(c3ccc(C#N)nn3)CC2)cc1
solubility [10]: 5.5 µM (≈ 1.93 µg/mL)
t1/2 [1]: 294 min
t1/2 ([2]; microsomes): 113 min
PPB [3]: 89%
PPB [8]: 92%
half-life [4]: > 48 h
Papp [5]: 3160 nm/s
PPB [9]: 92%
t1/2 [6]: 64 min

CC(C)c1ccc(NC(=O)N2CCN(c3cc(C#N)ccn3)CC2)cc1
IC50 (Pantothenate kinase 3): 0.23 µM

CCCCc1ccc(NC(=O)N2CCN(c3ccc(C#N)cn3)CC2)c(C)c1
IC50 (Pantothenate kinase 3): 1.2 µM

Cc1ccc(N2CCN(C(=O)Nc3ccc(C(C)C)cc3)CC2)nc1
IC50 (Pantothenate kinase 3): 2.3 µM

CC(C)c1ccc(OC(=O)N2CCN(c3ccc(C#N)cn3)CC2)cc1
IC50 (Pantothenate kinase 3): 0.42 µM

CC(C)c1ccc(C(O)C(=O)N2CCN(c3ccc(C#N)cn3)CC2)cc1 (stereo unspecified)
IC50 (Pantothenate kinase 3): 0.99 µM

CC(C)c1ccc(CC(=O)N2CCN(c3nccc(Cl)n3)CC2)cc1
IC50 (Pantothenate kinase 3): 0.27 µM

CC(C)c1ccc(NC(=O)N2CCN(c3cccc(Cl)c3)CC2)cc1
IC50 (Pantothenate kinase 3): 1.7 µM

CC(C)c1ccc(NC(=O)N2CCN(c3ncc(Br)cn3)CC2)cc1
IC50 (Pantothenate kinase 3): 0.16 µM

CC(C)c1ccc(NC(=O)N2CCN(c3nccc(C#N)n3)CC2)cc1
IC50 (Pantothenate kinase 3): 0.14 µM

CC(C)c1ccc(NC(=O)N2CCN(c3ccccn3)CC2)cc1
IC50 (Pantothenate kinase 3): 5.3 µM

CC(C)Cc1ccc(NC(=O)N2CCN(c3ccc(C#N)cn3)CC2)cc1
IC50 (Pantothenate kinase 3): 0.49 µM

CC(C)c1ccc(NC(=O)N2CCN(c3ccc(C#N)cc3)CC2)cc1
IC50 (Pantothenate kinase 3): 0.58 µM

CC(C)c1ccc(NC(=O)N2CCN(c3ccc(N)cn3)CC2)cc1
IC50 (Pantothenate kinase 3): > 10 µM

CC(C)c1ccc(NC(=O)N2CCN(c3cnc(C#N)nc3)CC2)cc1
IC50 (Pantothenate kinase 3): 0.17 µM

CC(C)c1ccc(NC(=O)N2CCN(c3ccc(C(F)(F)F)cn3)CC2)cc1
IC50 (Pantothenate kinase 3): 0.77 µM
